Source: patent publication US20150164064A1, “METHODS, COMPOSITIONS AND DEVICES FOR INDUCING STASIS IN CELLS, TISSUES, ORGANS, AND ORGANISMS” (Fred Hutchinson Cancer Research Center, priority 2003, published 2015)
“Also recorded” adds a separate entry of the source. Like-named read-outs stand apart in the source and are kept apart here.

Experiments:
human keratinocytes = assay: Preservation of human skin in carbon monoxide; keratinocyte growth and colony formation; format: cell-based
Procedure: Three human foreskins were obtained for this purpose. The foreskin tissue was preserved in keratinocyte growth medium (KGM) containing insulin, EGF (0.1 ng/ml), hydrocortisone ([…]) and bovine pituitary extract (approx. 50 micrograms/ml of protein). Foreskins were rinsed in PBS, and excess fatty tissue was removed. Each foreskin sample was divided into 2 equal pieces. Each piece was placed into a separate container containing a solution of PBS with 24 mg/ml of Dispase II (from Bacillus Polmyxa EC 3.4.24.4:Roche Diagnostics Corp., Indianapolis, Ind.). One container (containing a foreskin piece in PBS with Dispase II) was kept in a humid chamber in a fume hood. The other container (with the other half of the foreskin in PBS with Dispase II) was placed in the same fume hood in an environmental chamber perfused with humidified 100% CO. Both samples were maintained at room temperature for 24 hrs. Methods used to establish defined atmospheric conditions were identical to those used in Example 1. […]
Cells were inspected visually using an inverted phase contrast microscope. […] Quantitation of the number of viable keratinocytes as judged by colony formation was quantified for two of the three foreskins.

hif-1(ia04) embryos = assay: Viability and suspended animation of nematodes in carbon monoxide based atmospheres (hif-1 mutant); format: in vivo, C. elegans
From the text: Viability of nematodes in carbon monoxide based atmospheres. 30-60 embryos were harvested from continuously maintained Bristol N2 and […] strains as described above. Environmental chambers were continuously perfused at room temperature with pure CO (grade CP) or 500 ppm O2/CO at 70 cc/min for 24 hrs. To achieve 2500 ppm O2/CO or 2500 ppm O2/N2, 5000 ppm O2/N2 was mixed at a 1:1 ratio with either pure CO or pure N2 using two mass flow controllers (Sierra Instruments 810) to precisely monitor flow. Each gas was delivered into a 3-way valve (Cole-Parmer #A-30600-23) at 50 cc/min and the resulting mixture was then passed through a gas washing bottle and into an environmental chamber throughout the 24 hour exposure. All gases were supplied by Byrne Gas (Seattle, Wash.). The 500 ppm O2/CO mixture was certified to ±2% of the oxygen content and contained […] to ensure a consistent O2/CO ratio throughout the use of the tank.
Cell biological analysis. To determine the extent of developmental progression in nitrogen-based atmospheres (Table 2), 2-cell embryos were exposed to various degrees of hypoxia as described above and were either immediately photographed, or photographed following a […] recovery period in a humid chamber. […]

humans [1] = conditions: cited from earlier work
[2] = test system: wild-type C. elegans embryos (Bristol N2); assay: Viability and suspended animation of nematodes in carbon monoxide based atmospheres (wild-type); format: in vivo
From the text: To achieve specific atmospheric conditions the following apparatus was used: a glass syringe barrel having a tip with a locking device such as a LUER-LOK with the large opening of the barrel sealed with a custom-machined steel and rubber fitting to make an airtight seal was locked to via locking device to the inlet port of an environmental chamber having an inlet and an outlet port each fitted with a locking devices such as a LUER-LOK fitting. A defined gas was humidified and provided to the environmental chamber by first venting the gas from a compressed tank (Byrne Specialty Gas, Seattle, Wash.) through a gas washing bottle (500 ml Kimex) filled with double distilled water. The gas washing bottle was connected to the environmental chamber past a gas-flow meter. A gas flow meter was used to provide a regulated 70 cc/min flow through the environmental chamber throughout the 24 hr incubation.
To test whether induced, reversible stasis could be achieved in C. elegans nematodes, 2-cell C. elegans embryos, L3 larvae or adult nematodes were collected and exposed to either an environment of effectively 100% CO, an environment of 100% N2, an environment comprising 500 ppm oxygen balanced with carbon monoxide, or to environments comprising 100, 500 or 1000 ppm oxygen balanced with nitrogen at room temperature. Nematodes were visualized using differential interference contrast microscopy (also known as Nomarski optics), images were collected and analyzed using NIH image and Adobe Photoshop 5.5. Embryos are approximately 50 μm in length.
Enviromental chambers and apparati. Oxygen deprivation experiments were carried out using a custom atmospheric chamber designed by W. Van Voorhies (Van Voorhies et al., 2000). The chamber is a 30 mL glass syringe (Fisher #14-825-10B) fitted with a custom steel stopper that is lined with two viton o-rings to ensure a tight seal. The stopper is bored through and has a steel lure lock on the exterior face so that a hose carrying compressed gas can be attached. A defined gas mixture is delivered to the chamber at a constant pressure and flow rate from compressed tanks by passing first through a rotometer (Aalborg, flow-tube number 032-41ST) or mass flow controller (Sierra Instruments #810) to monitor flow rate and then through a 500 ml gas washing bottle (Fisher #K28220-5001) containing 250 ml water to hydrate the gas. ¼″ OD nylon (Cole-Parmer #P-06489-06) or FEP (Cole-Parmer #A-06450-05) tubing was used and connections between tubing and the regulators and between the tubing and the rotometers were made with brass John-Guest-type fittings (Byrne Gas). All other connections were made with either microflow quick-connect fittings (Cole-Parmer #A-06363-57, #A-06363-52) or standard lure fittings (Cole-Parmer #A-06359-37, #A-06359-17).
Viability of nematodes in hypoxia. […] Log-phase, adult C. elegans were picked into a drop of sterile water containing 100 μg/ml ampicillin, 15 μg/ml tetracycline and 200 μg/ml streptomycin on a glass plate. Adults were chopped with a razor blade and 2-cell embryos were picked using a mouth pipet. 30-60 2-cell embryos were transferred to a small glass boat (custom made to fit atmospheric chambers, Avalon Glass Works, Seattle Wash.) filled with 3 ml of 1% agarose in M9. […] Embryos were scored for hatching 24 hours after exposure and hatched L1's were transferred to the surface of the NGM plate and followed to adulthood. […]

mice [3] = conditions: 80 ppm, cited from earlier work
mice [4] = test system: mice
mice [5] = assay: Core body temperature, heart rate and movement of mice by telemetry in regulated H2S atmosphere; format: in vivo, mouse; conditions: 80 ppm
From the text: Implantation of telemetry devices.
Exposure of Mice to Regulated Atmosphere.
Regulation of Ambient Temperature. […] Mice were exposed to regulated atmosphere as described above.

humans [6] = conditions: 500 ppm; cited from earlier work
rats = conditions: cited from earlier work

[C-]#[O+] [CO, carbon monoxide]
keratinocyte growth (visual inspection) (human keratinocytes; all three populations, 100% CO 24 hr): significant growth
cell survival in CO relative to room air (human keratinocytes; human skin, 100% CO, after 24 hrs): 100 fold
viability (survival) to adulthood (hif-1(ia04) embryos; 0.25 kPa O2/CO, 24 hrs, hif-1(ia04) embryos): 84.0%
suspended animation (hif-1(ia04) embryos; 0.25 kPa O2 balanced with carbon monoxide, hif-1(ia04)): entered into suspended animation
symptoms in humans (humans [1]; 50 ppm): no symptoms
symptoms in humans (humans [1]; 200 ppm, within two-three hours): slight headache
symptoms in humans (humans [1]; 400 ppm, within one to two hours): frontal headache
symptoms in humans (humans [1]; 800 ppm, within 45 minutes): dizziness, nausea, and/or convulsions
symptoms in humans (humans [1]; 800 ppm, within two hours): insensible
lethality (humans [1]; around 1000 ppm, exposure more than around 1-2 minutes): can expire
suspended animation ([2]; 0.25 kPa O2 balanced with carbon monoxide, wild-type): entered into suspended animation
suspended animation ([2]; 100% CO (101 kPa CO), 24 hrs): entered into suspended animation
suspended animation ([2]; 100% CO (101 kPa CO), 24 hrs, listed as carbon monoxide): induced reversible suspended animation
lethality to nematodes ([2]; 100% CO, 24 hr, room temperature): not lethal
suspended animation and survival ([2]; 500 ppm oxygen (0.05 kPa O2) balanced with carbon monoxide, 24 hrs): entered into suspended animation and survived; also recorded: arrested embryogenesis

S [H2S, hydrogen sulfide]
tolerability (mice [3]; exposures up to ten weeks): innocuous
toxicology, gross and histopathological examination (mice [3]; mice, 6 hrs per day, 5 days per week, 90 days): no observed adverse effect
behavior compared to untreated animals (mice [4]; after 80 ppm, cabinet 10.5°C): no apparent change in the behavior
behavior tests (SHIRPA protocol) before and after exposure (mice [4]; after gas exposure): no detectable behavioral differences
behavior of the animals (mice [4]; four mice maintained for 4 weeks after 80 ppm, 6 hr, 15°C): no apparent change in the behavior
core body temperature repeatedly reached on demand (mice [5]): 13-15 °C
acute effect of extreme levels (humans [6]): sudden collapse and unconsciousness
perinatal exposure effect on cerebellar Purkinje cells (rats; 20 or 50 ppm, 7 hours per day, gestation through post-natal day 21): longer dendritic branches with reduced aborization of cerebellar Purkinje cells
perinatal study, neuropathology and behavior of rat pups (rats; 80 ppm): no neuropathological effects or altered motor activity, passive avoidance, or acoustic startle response
behavioral toxicity, avoidance responses (rats; moderate levels, immediately after end of exposure): inhibits discriminated avoidance responses
behavioral toxicity, maze learning (rats; moderate levels): interferes with the ability of rats to learn a baited radial arm maze task
toxicology, gross and histopathological examination (rats; rats, 80 ppm, 6 hrs per day, 5 days per week, 90 days): no observed adverse effect
